The values that follow come from patent US20240408093A1, “HETEROBIFUNCTIONAL COMPOUNDS AND THEIR USE IN TREATING DISEASE” (HALDA THERAPEUTICS OPCO, INC., priority 2022, published 2024).

Holding throughout (assay type): cell-based
Test [1] concerns CCNK. The experiment in a line: Payload release assay (DC50 readout), CCNK degradation in the presence of recombinant target protein. Here is the method:
Exemplary compounds were tested for ability to cause degradation of CCNK or GSPT1 in the presence of recombinant target protein.
HEK293 LgBiT/GSPT1 HiBiT CRISPR Knock-in cells (Promega) were cultured in DMEM (Gibco 11995), supplemented with 10% Heat-inactivated FBS (Gibco A38400-01) and 1% Penicillin/Streptomycin (Gibco 15140-122) and 200 Vg/ml Hygromycin B (Gibco 10-687-010) at 37° C. with 5% CO2 in a humidified tissue culture incubator. HEK293 LgBiT/CCNK HiBiT cells (in-house, described above) were cultured in DMEM (Gibco 11995), supplemented with 10% Heat-inactivated FBS (Gibco A38400-01) and 1% Penicillin/Streptomycin (Gibco 15140-122) 200 Vg/ml Hygromycin B (Gibco 10-687-010), and 1 Vg/ml Puromycin Dihydrochloride (Thermo A1113803) at 37° C. with 5% CO2 in a humidified tissue culture incubator. Cells were seeded (1000 cells/well for HEK293 LgBiT/GSPT1 HiBiT cells or 3000 cells/well for HEK293 LgBiT/CCNK HiBiT cells) 384-well, tissue culture-treated white plates (Perkin Elmer 6007680) in 10 μL media lacking selection for 18-24 hours. Plates were spun at 300 g for 30 seconds and stored in the incubator overnight. After 24 hours, a 5 μL aliquot of recombinant target protein (final concentration of either 5 μM KRAS amino acids 1-169, C51S, C80L, C118S, G12C or 3 μM EGFR amino acids 696-1022 or 3 μM EGFR amino acids 696-1022, T790M, L858R) was added to wells, followed immediately by a 5 μL aliquot of 4× compound-containing medium supplemented with Endurazine Substrate (Promega N2570) was added in each well, at a final top concentration of 10 μM test compound and 0.5× Endurazine, with 4-fold dilutions, using DMSO alone as a negative control. Plates were then spun at 300×g for 3 minutes again and cultured at 37° C. with 5% CO2. After 6 hours the plate was read on Envision MultiMode Plate Reader 2105 (Perkin Elmer) to measure luminescence signal. Data was normalized to DMSO treated cell wells. A four-parameter non-linear regression curve fit was applied to dose-response data in Prism to determine the half maximal growth inhibitory concentration (GI50) of each compound.

Test [2] has as its target T1, CCNK (Homo sapiens, UniProt O75909+Q16531+Q9NYV4).
T1 construct: expressed in transfected cells; host or cells: HEK293 LgBiT cells (Promega), lentiviral transduction, puromycin selection
Briefly: CCNK HiBiT degradation assay. Particulars: HEK293 LgBiT/CCNK HiBiT cells, 6 hours. Here is the method: HEK293 LgBiT cells (Promega) were cultured in DMEM (Gibco 11995), supplemented with 10% Heat-inactivated FBS (Gibco A38400-01) and 1% Penicillin/Streptomycin (Gibco 15140-122) and 200 μg/ml Hygromycin B (Gibco 10-687-010) at 37° C. with 5% CO2 in a humidified tissue culture incubator. Cells were made stable for CCNK fused to a C-terminal HiBiT peptide by lentiviral transduction, followed by selection with 1 μg/ml Puromycin Dihydrochloride (Thermo A1113803). HEK293 LgBiT/CCNK HiBiT cells were seeded at 3000 cells/well in 384-well, tissue culture-treated white plates (Perkin Elmer 6007680) in 25 μL media lacking selection for 18-24 hours. Plates were spun at 300 g for 30 seconds and stored in the incubator overnight. After 24 hours, compounds were titrated in DMSO and added to media supplemented with Endurazine Substrate (Promega N2570). A 25 ul aliquot of 2× compound/endurazine in media were then added to the 384-well microplate with seeded cells. (Endurazine was used at a final concentration of 0.5×). The plate was spun at 300 g for 30 seconds and stored in the incubator. After 6 hours the plate was read on Envision MultiMode Plate Reader 2105 (Perkin Elmer) to measure luminescence signal. Data were plotted in Prism (Graphpad) and the concentration of compound at which 50% CCNK degradation occurs (DC50) was calculated.
On the technique in general: HiBiT is a short tag that completes a luciferase, so light tracks the accessible tagged protein.

Test [3] has as its target T2, EGFR T790M/L858R kinase domain (Homo sapiens, UniProt P00533, L858R/T790M).
T2 construct: EGFR (amino acids 696-1022, T790M, L858R); expressed in transfected cells; host or cells: HEK293, lentiviral transduction, puromycin selection
Briefly: EGFR cellular target engagement assay (HEK293 cells stable for EGFR T790M, L858R). The settings on record: 6 hours, read-out: TE50 (the source's name). Here is the method:
HEK293 cells were cultured in DMEM (Gibco 11995), supplemented with 10% Heat-inactivated FBS (Gibco A38400-01) and 1% Penicillin/Streptomycin (Gibco 15140-122) at 37° C. with 5% CO2 in a humidified tissue culture incubator. Cells were made stable for EGFR (amino acids 696-1022, T790M, L858R) by lentiviral transduction, followed by selection with 1 μg/ml Puromycin Dihydrochloride (Thermo A1113803). Cells were seeded at 30,000 cells/ml in 0.1 ml of complete media in Poly-D-lysine-treated 96-well plates and incubated overnight. Cells were treated with increasing concentrations of compound and let incubate at 37C and 5% CO2 for 6 hours, after which media was aspirated, washed with 1×PBS and cells were lysed in RIPA Lysis and Extraction Buffer (Thermo 89901) supplemented with 5 mM MgCl2, Protease and Phosphatase inhibitor cocktail (Thermo 1861281), and Universal Nuclease (Thermo 88700). Plates with RIPA were shaken at 4° C. at 600 rpm for 15 min. After shaking samples, they were collected and spun down at 21,000 g for 15 min at 4° C. Following centrifugation, […] of lysate was added to Laemmli Sample Buffer (Bio-Rad 1610747) plus 10% beta-mercaptoethanol, boiled for 15 minutes at 65° C. and loaded onto 4-20% Mini-PROTEAN TGX™ Precast Protein Gels (Bio-Rad). Protein was transferred to a nitrocellulose membrane (Thermo LC2000) using the iBlot 2 Dry Blotting System (Thermo). After transfer, membranes were washed in 1× TBST (Bioland Scientific LLC TBST0103) 3× for 5 min. Following the wash, blocking buffer (Rockland MB-070) was added for 1 hour at room temperature. Primary antibodies against EGFR (Cell Signaling Technology 3197) and actin (Cell Signaling Technology 3700S) were added overnight at 4° C. Membranes were then washed again 3× for 5 min in 1× TBST. Secondary antibodies (LI-COR 926-68072 and 926-68073) were added and shaken for 1 hr at room temperature. Membranes were then washed 3× for 5 min in 1×TBST and developed. Membranes were placed on an Odyssey imager (LI-COR).

The mark [4] stands for this setting: 0 μM recombinant KRAS G12C, II-series compounds (CCNK readout inferred), read-out: DC50 at 0 μM KRAS G12C.
The mark [5] stands for this setting: 5 μM recombinant KRAS G12C, II-series compounds (CCNK readout inferred), read-out: DC50 at 5 μM KRAS G12C.
[6] abbreviates: 0 μM recombinant EGFR T790M L858R, II-series and V-4 (CCNK readout inferred), read-out: DC50 at 0 μM EGFR T790M L858R.
[7] abbreviates: 0 μM recombinant EGFR WT, II-series and V-4 (CCNK readout inferred), read-out: DC50 at 0 μM EGFR WT.
Where [8] appears, read: 3 μM recombinant EGFR WT, II-series and V-4 (CCNK readout inferred), read-out: DC50 at 3 μM EGFR WT.

SMILES strings stand for the structures. Like-named read-outs stand apart in the source and are kept apart here.

T2 sequence (P00533 696-1022 T790M/L858R): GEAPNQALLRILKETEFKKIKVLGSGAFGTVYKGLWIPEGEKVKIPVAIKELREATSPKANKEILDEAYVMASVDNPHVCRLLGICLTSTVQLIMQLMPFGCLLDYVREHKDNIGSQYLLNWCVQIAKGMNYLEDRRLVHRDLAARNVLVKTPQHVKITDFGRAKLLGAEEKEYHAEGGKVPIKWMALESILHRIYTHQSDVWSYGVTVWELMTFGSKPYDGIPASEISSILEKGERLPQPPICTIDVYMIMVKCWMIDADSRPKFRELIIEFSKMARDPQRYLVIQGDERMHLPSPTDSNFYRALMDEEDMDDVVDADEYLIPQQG
T1 sequence (O75909 whole entry, species assumed): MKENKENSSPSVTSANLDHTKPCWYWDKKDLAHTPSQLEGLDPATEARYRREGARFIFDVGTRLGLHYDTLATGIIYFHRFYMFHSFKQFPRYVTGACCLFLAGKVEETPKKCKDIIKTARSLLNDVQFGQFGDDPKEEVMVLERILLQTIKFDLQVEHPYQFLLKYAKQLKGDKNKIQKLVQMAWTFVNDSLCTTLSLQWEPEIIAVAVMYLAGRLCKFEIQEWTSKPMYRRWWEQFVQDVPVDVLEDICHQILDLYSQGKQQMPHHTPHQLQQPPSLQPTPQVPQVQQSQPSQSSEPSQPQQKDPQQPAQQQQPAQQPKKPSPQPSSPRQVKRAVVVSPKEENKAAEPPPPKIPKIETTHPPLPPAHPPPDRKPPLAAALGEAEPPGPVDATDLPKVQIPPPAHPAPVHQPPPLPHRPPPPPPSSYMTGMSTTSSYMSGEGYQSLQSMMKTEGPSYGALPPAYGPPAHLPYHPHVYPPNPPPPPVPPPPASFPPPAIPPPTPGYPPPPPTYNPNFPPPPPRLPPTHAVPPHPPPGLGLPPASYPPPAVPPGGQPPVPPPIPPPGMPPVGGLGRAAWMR
T1 sequence (Q9NYV4 whole entry, species assumed): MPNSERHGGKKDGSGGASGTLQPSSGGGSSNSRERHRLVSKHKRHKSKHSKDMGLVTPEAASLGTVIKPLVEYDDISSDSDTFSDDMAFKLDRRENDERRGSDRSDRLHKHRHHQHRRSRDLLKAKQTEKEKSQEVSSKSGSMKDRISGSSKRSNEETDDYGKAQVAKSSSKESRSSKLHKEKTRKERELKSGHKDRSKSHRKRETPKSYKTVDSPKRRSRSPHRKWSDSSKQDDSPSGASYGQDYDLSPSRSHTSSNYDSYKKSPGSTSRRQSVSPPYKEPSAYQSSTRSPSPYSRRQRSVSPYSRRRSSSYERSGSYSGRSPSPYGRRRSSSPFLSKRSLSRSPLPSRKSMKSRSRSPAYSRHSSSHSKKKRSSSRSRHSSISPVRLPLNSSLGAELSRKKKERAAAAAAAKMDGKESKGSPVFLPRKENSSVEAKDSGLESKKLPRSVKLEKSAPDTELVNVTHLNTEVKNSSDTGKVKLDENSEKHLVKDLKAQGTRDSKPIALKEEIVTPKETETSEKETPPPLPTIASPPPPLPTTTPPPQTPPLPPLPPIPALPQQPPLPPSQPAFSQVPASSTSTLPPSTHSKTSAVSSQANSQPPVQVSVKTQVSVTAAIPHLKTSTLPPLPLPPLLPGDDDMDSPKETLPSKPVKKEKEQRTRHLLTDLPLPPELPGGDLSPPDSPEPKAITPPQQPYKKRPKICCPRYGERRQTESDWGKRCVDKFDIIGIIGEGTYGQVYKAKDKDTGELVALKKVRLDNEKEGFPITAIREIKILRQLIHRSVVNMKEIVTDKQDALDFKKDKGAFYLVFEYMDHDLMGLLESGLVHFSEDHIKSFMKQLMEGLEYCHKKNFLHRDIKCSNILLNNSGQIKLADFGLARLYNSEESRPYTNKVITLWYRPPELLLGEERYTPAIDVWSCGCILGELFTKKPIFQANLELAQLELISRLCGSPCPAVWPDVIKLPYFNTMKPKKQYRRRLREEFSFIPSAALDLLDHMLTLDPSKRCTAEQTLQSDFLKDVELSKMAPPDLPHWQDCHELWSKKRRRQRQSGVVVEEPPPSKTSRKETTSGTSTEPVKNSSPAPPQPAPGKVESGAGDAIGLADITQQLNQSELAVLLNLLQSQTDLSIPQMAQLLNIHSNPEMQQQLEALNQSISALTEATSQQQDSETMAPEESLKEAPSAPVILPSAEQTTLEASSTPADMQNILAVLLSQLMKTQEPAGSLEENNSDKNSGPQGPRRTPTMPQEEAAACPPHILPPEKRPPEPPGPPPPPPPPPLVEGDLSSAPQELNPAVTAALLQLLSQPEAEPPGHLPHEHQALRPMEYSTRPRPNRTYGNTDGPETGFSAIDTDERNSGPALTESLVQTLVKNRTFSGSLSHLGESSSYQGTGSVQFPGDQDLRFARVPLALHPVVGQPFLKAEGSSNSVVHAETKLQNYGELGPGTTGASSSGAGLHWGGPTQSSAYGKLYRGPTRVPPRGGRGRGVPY
T1 sequence (Q16531 whole entry, species assumed): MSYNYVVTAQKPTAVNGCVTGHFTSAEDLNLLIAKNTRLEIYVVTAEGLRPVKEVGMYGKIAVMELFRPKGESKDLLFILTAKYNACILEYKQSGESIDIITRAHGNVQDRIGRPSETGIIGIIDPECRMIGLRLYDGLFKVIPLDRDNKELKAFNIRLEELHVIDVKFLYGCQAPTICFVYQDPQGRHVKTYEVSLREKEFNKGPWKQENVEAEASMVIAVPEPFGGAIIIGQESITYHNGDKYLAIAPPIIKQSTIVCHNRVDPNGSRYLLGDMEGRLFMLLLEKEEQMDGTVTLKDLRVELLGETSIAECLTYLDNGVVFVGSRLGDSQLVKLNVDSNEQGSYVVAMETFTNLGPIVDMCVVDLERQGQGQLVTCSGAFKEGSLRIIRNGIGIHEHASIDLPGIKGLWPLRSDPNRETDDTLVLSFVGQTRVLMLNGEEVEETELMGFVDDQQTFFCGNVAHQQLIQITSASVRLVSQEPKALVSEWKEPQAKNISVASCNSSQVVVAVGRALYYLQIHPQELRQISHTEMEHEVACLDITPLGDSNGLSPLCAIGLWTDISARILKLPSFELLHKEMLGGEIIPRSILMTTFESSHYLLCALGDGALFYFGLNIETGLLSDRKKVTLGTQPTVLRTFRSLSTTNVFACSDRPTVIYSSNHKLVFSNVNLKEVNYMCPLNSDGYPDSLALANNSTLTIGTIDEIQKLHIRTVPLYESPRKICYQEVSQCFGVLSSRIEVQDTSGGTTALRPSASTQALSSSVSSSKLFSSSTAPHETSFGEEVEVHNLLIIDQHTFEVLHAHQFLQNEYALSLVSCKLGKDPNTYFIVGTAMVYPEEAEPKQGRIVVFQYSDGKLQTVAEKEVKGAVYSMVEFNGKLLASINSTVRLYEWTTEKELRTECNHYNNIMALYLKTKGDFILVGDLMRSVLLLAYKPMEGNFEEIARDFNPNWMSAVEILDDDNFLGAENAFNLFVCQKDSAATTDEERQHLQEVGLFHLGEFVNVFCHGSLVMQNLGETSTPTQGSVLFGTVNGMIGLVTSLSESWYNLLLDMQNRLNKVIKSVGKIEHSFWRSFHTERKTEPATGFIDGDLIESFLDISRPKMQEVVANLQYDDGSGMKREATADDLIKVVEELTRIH

Take `C=C(CN1CCN(c2nc(NCc3nc4cc(C)ccc4[nH]3)n3ncc(Br)c3n2)CC1)C(=O)N1CCN(c2nc(OC[C@@H]3CCCN3C)nc3c2CCN(c2cccc4cccc(Cl)c24)C3)C[C@@H]1CC#N` [II-190]: the half-maximal degradation concentration (DC50) in the test on CCNK [1] (setting [4]), in the test on CCNK [1] (setting [5]) and at CCNK [2] was less than 250 nM in each case.
Take `C=C(COc1cc(Cl)cc(NC(=O)NCc2ccc3c(c2)CN(C2CCC(=O)NC2=O)C3=O)c1)C(=O)Nc1cccc(-c2cccc3cnc(Nc4ccc(N5CCN(CCO)CC5)c(F)c4F)nc23)c1` (stereo not shown) [Compound I-61]: the EC50 in test [3] was greater than 10000 nM.
As for `C=C(COC(=O)N1CCN(c2nc(NCc3nc4cc(C)ccc4[nH]3)n3ncc(Br)c3n2)CC1)C(=O)N1C[C@H](COc2nc(Nc3cnn(C)c3)nc3[nH]cc(Cl)c23)[C@@H](OC)C1` [II-185], the DC50 (usually the concentration at which degradation of the target reaches its halfway point) in the test with CCNK [1] (setting [6]) is 250 to 5000 nM; in the test with CCNK [1] (setting [7]) it was 250 to 5000 nM; in the test with CCNK [1] (3 μM recombinant EGFR T790M L858R, II-series and V-4 (CCNK readout inferred), read-out: DC50 at 3 μM EGFR T790M L858R) it was less than 250 nM; in the test on CCNK [1] (setting [8]) it was less than 250 nM; on CCNK [2] it was less than 250 nM. The EC50 in test [3] was greater than 10000 nM.
As to `C=C(COc1cc(Cl)cc(NC(=O)NCc2ccc3c(c2)CN(C2CCC(=O)NC2=O)C3=O)c1)C(=O)Nc1cccc(Oc2nc(Nc3ccc(N4CCN(C)CC4)cc3)nc3ccsc23)c1` (stereo not shown) [Compound I-55], in test [3], the EC50 was greater than 10000 nM.
`C=C(CN(C(=O)NCc1ccc2c(c1)CN(C1CCC(=O)NC1=O)C2=O)c1ccc(C)c(Cl)c1)C(=O)N1C[C@@H](COc2nc(Nc3cnn(C)c3)nc3[nH]cc(Cl)c23)[C@H](OC)C1` (stereo partly shown) [Compound I-71]: the EC50 in test [3] was greater than 10000 nM.
On to `C=C(CN1CCN(c2nc(NCc3nc4cc(C)ccc4[nH]3)n3ncc(Br)c3n2)CC1)C(=O)Nc1cc(Nc2nccc(-c3cn(C)c4ccccc34)n2)c(OC)cc1N(C)CCN(C)C` [II-188], for which the 50% degradation concentration (DC50) in the test with CCNK [1] (setting [6]) is less than 250 nM; with CCNK [1] (setting [7]), less than 250 nM; in the test with CCNK [1] (setting [8]) it was greater than 10000 nM; on CCNK [2], less than 250 nM. For the same molecule, the EC50 in test [3] was less than 250 nM.
Take `C=C(CN1CCN(c2nc(NCc3nc4cc(C)ccc4[nH]3)n3ncc(Br)c3n2)CC1)C(=O)Nc1cccc(-c2cccc3cnc(Nc4ccc(N5CCN(CCO)CC5)c(F)c4F)nc23)c1` [II-191]: the values for the DC50 with CCNK [1] (setting [6]) and in the test on CCNK [1] (setting [7]) were 250 to 5000 nM and 5000 to 10000 nM, respectively. In addition, the EC50 in test [3] is greater than 10000 nM.
As to `C=C(COc1cc(Cl)cc(NC(=O)NCc2ccc3c(c2)CN(C2CCC(=O)NC2=O)C3=O)c1)C(=O)N1C[C@H](COc2nc(Nc3cnn(C)c3)nc3[nH]cc(Cl)c23)[C@@H](OC)C1` (stereo partly shown) [Compound I-54], the EC50 in test [3] lay in the range of 250 to 5000 nM.
As for `C=C(COc1c(Cl)cccc1NC(=O)NCc1ccc2c(c1)CN(C1CCC(=O)NC1=O)C2=O)C(=O)N[C@@H]1CN(c2nc(Nc3cn(C)nc3OC)c3ncn(C)c3n2)C[C@H]1F` (stereo partly shown) [Compound I-69], the EC50 in test [3] was 250 to 5000 nM.
The same measure, in the same setting: as for `C=C(CN(C(=O)NCc1ccc2c(c1)CN(C1CCC(=O)NC1=O)C2=O)c1ccc(C)c(Cl)c1)C(=O)Nc1cc(Nc2ncc(-c3cn(C)c4ccccc34)cn2)c(OC)cc1N(C)CCN(C)C` (stereo not shown) [Compound I-42], the figure is 5000 to 10000 nM; as for `C=C(CN(C(=O)NCc1ccc2c(c1)CN(C1CCC(=O)NC1=O)C2=O)c1ccc(C)c(Cl)c1)C(=O)Nc1cccc(Oc2nc(Nc3ccc(N4CCN(C)CC4)cc3)nc3ccsc23)c1` (stereo not shown) [Compound I-70], greater than 10000 nM; as for `C=C(COc1cc(Cl)cc(NC(=O)NCc2ccc3c(c2)CN(C2CCC(=O)NC2=O)C3=O)c1)C(=O)Nc1cc(Nc2nccc(-c3cn(C)c4ccccc34)n2)c(OC)cc1N(C)CCN(C)C` (stereo not shown) [Compound I-59], 250 to 5000 nM.
On the same count and under the same terms, as for `C=C(COc1c(Cl)cccc1NC(=O)NCc1ccc2c(c1)CN(C1CCC(=O)NC1=O)C2=O)C(=O)Nc1cc(Nc2nccc(-c3cn(C)c4ccccc34)n2)c(OC)cc1N(C)CCN(C)C` (stereo not shown) [Compound I-60], the figure is less than 250 nM; as for `C=C(COc1ccc(Cl)cc1NC(=O)NCc1ccc2c(c1)CN(C1CCC(=O)NC1=O)C2=O)C(=O)N[C@@H]1CN(c2nc(Nc3cn(C)nc3OC)c3ncn(C)c3n2)C[C@H]1F` (stereo partly shown) [Compound I-47], 250 to 5000 nM; as for `C=C(CN1C(=O)CCC(N2Cc3cc(CNC(=O)Nc4ccc(C)c(Cl)c4)ccc3C2=O)C1=O)C(=O)Nc1cc(Nc2ncc(-c3cn(C)c4ccccc34)cn2)c(OC)cc1N(C)CCN(C)C` (stereo not shown) [Compound I-87], less than 250 nM.
As for `C=C(COc1cc(-c2ccccn2)ccc1CNc1nc(N[C@H](CC)CO)nc2c1ncn2C(C)C)C(=O)N[C@@H]1CN(c2nc(Nc3cn(C)nc3OC)c3ncn(C)c3n2)C[C@H]1F` [II-183], the DC50 with CCNK [1] (setting [6]) and in the test with CCNK [1] (setting [7]) was less than 250 nM throughout. Also, the EC50 in test [3] fell in the range of 250 to 5000 nM.
Take `C=C(COc1cc(-c2ccccn2)ccc1CNc1nc(N[C@H](CC)CO)nc2c1ncn2C(C)C)C(=O)N1CCN(c2nc(OC[C@@H]3CCCN3C)nc3c2CCN(c2cccc4cccc(Cl)c24)C3)C[C@@H]1CC#N` [II-186]: the half-maximal degradation concentration (DC50) with CCNK [1] (setting [4]) was 250 to 5000 nM; in the test with CCNK [1] (setting [5]), less than 250 nM; on CCNK [2], 250 to 5000 nM.
